In brackets after ≈: the same amount, converted by molar mass.
Each molecule was assayed on KB (assay: Cytotoxicity against human KB cells assessed as inhibition of protein biosynthesis). Conditions: read-out: ED50 (the source's name).
Type: functional

Going from `Cc1cn([C@H]2C[C@H](n3cc(C4CN5CCC4C[C@@H]5[C@@H](O)c4ccnc5ccccc45)nn3)[C@@H](CO)O2)c(=O)[nH]c1=O` (some centres undefined) to `Cc1cn([C@H]2C[C@H](n3cc(C4CN5CCC4C[C@H]5[C@H](O)c4ccnc5ccccc45)nn3)[C@@H](CO)O2)c(=O)[nH]c1=O` (some centres undefined), the EC50 falls from 21 mg/L (≈ 37.5 µM) to 11.6 mg/L (≈ 20.7 µM) (1.8-fold).

Compared with `C=CC1CN2CCC1C[C@@H]2[C@@H](OCc1cn([C@H]2C[C@H](n3cc(C)c(=O)[nH]c3=O)O[C@@H]2CO)nn1)c1ccnc2ccc(OC)cc12` (some centres undefined), `C=CC1CN2CCC1C[C@H]2[C@H](OCc1cn([C@H]2C[C@H](n3cc(C)c(=O)[nH]c3=O)O[C@@H]2CO)nn1)c1ccnc2ccc(OC)cc12` (some centres undefined) is 1.9-fold lower in EC50: 3.9 mg/L (≈ 6.19 µM) for the first, 2.1 mg/L (≈ 3.33 µM) for the second.

Compared with `COc1ccc2nccc([C@@H](O)[C@@H]3CC4CCN3CC4c3cn([C@H]4C[C@H](n5cc(C)c(=O)[nH]c5=O)O[C@@H]4CO)nn3)c2c1` (some centres undefined), `COc1ccc2nccc([C@H](O)[C@H]3CC4CCN3CC4c3cn([C@H]4C[C@H](n5cc(C)c(=O)[nH]c5=O)O[C@@H]4CO)nn3)c2c1` (some centres undefined) is 9.2-fold higher in EC50: 1.3 mg/L (≈ 2.2 µM) for the first, 12 mg/L (≈ 20.4 µM) for the second.

`C=CC1CN2CCC1C[C@@H]2[C@@H](OCc1cn([C@H]2C[C@H](n3cc(C)c(=O)[nH]c3=O)O[C@@H]2CO)nn1)c1ccnc2ccccc12` (some centres undefined) and `C=CC1CN2CCC1C[C@H]2[C@H](OCc1cn([C@H]2C[C@H](n3cc(C)c(=O)[nH]c3=O)O[C@@H]2CO)nn1)c1ccnc2ccccc12` (some centres undefined) cannot be ordered by EC50: greater than 100 mg/L for the first, greater than 100 mg/L for the second.

Work on `Nc1ccn([C@@H]2O[C@H](CO)[C@@H](O)[C@@H]2O)c(=O)n1` [CYTARABINE] yielded an EC50 of 0.99 mg/L (≈ 4.07 µM).
